In ChEMBL document CHEMBL1759964, “Structure-based virtual screening approach to the discovery of phosphoinositide 3-kinase alpha inhibitors” (Bioorg Med Chem Lett, 2011):

Target: Phosphatidylinositol 4,5-bisphosphate 3-kinase catalytic subunit alpha isoform (Homo sapiens, UniProt P42336)
Experiment: Inhibition of PI3Kalpha

Phosphatidylinositol 4,5-bisphosphate 3-kinase catalytic subunit alpha isoform, sequence (P42336 whole entry, canonical isoform): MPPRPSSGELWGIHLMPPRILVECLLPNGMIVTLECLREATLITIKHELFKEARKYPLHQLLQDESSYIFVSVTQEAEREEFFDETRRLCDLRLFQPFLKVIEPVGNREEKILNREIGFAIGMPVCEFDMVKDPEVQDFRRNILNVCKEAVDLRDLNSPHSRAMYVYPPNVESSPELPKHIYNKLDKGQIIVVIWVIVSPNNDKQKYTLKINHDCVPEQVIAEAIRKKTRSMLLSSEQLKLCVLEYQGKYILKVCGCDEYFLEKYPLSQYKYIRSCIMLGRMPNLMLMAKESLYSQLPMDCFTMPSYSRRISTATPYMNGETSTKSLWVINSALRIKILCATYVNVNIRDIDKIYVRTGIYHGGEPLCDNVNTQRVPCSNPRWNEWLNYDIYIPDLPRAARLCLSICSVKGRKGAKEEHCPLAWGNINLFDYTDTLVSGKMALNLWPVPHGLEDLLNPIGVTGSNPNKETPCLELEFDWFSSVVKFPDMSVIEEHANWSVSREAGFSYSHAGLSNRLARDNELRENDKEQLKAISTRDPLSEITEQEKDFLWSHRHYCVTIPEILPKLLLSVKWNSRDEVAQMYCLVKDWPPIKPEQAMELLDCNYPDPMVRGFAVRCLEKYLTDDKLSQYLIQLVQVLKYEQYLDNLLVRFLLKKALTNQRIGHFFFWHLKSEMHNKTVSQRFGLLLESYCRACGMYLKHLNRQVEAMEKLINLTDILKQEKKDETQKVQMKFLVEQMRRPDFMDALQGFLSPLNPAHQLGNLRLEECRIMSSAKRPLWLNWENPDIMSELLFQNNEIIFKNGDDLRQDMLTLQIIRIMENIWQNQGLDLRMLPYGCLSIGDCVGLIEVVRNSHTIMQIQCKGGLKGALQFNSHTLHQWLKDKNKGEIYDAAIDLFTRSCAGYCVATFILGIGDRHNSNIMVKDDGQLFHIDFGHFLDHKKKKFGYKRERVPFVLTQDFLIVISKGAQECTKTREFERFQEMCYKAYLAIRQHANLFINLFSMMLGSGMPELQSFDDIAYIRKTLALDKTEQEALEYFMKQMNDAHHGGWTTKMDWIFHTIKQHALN

| SMILES | IC50 [µM] |
| --- | --- |
| Cc1ccc(OCC(=O)Nc2ccc(-c3nnc(-c4ccco4)o3)cc2)cc1 | 40 |
| Cc1cccc(NC(=O)c2ccc(Cn3cnc4ccccc4c3=O)o2)n1 | 28 |
| Cc1nc(N/C(N)=N/C(=O)c2ccccc2N)nc2ccccc12 | 23 |
| CCOc1ccc2nc3cc(/N=C/c4ccco4)ccc3c(N)c2c1 | 40 |
